Assay results as given in ChEMBL document CHEMBL2321680, “High-Throughput Selectivity Assays for Small-Molecule Inhibitors of β-Catenin/T-Cell Factor Protein-Protein Interactions” (ACS Med Chem Lett, 2013).

Legend:
Homo sapiens [1] = organism: Homo sapiens; assay: Selectivity ratio of Ki for human […]/APC-R3 interaction to Ki for human […]/Tcf4 interaction by fluorescence polarization assay
Homo sapiens [2] = organism: Homo sapiens; assay: Selectivity ratio of Ki for human […]/E-cadherin interaction to Ki for human […]/Tcf4 interaction by fluorescence polarization assay
Homo sapiens [3] = organism: Homo sapiens; assay: Selectivity ratio of Ki for human […]/APC-R3 interaction to Ki for human […]/Tcf4 interaction by alphascreen assay
Homo sapiens [4] = organism: Homo sapiens; assay: Selectivity ratio of Ki for human […]/E-cadherin interaction to Ki for human […]/Tcf4 interaction by alphascreen assay
TCF4/beta-catenin [5] = target: T1, TCF4/beta-catenin (Homo sapiens, UniProt P35222+Q9NQB0); assay: Inhibition of human […]/Tcf4 interaction after 1 hr by fluorescence polarization assay; format: protein-complex assay
TCF4/beta-catenin [6] = target: T1, TCF4/beta-catenin; assay: Inhibition of human beta-catenin/Tcf4 interaction after 1 hr by alphascreen assay
[7] = target: Catenin beta-1/Adenomatous polyposis coli protein (Homo sapiens); assay: Inhibition of human beta-catenin/APC-R3 interaction after 1 hr by alphascreen assay
[8] = target: Catenin beta-1/Cadherin-1 (Homo sapiens); assay: Inhibition of human beta-catenin/E-cadherin interaction after 1 hr by alphascreen assay
[9] = target: Catenin beta-1/Adenomatous polyposis coli protein (Homo sapiens); assay: Inhibition of human beta-catenin/APC-R3 interaction after 1 hr by fluorescence polarization assay
[10] = target: Catenin beta-1/Cadherin-1 (Homo sapiens); assay: Inhibition of human beta-catenin/E-cadherin interaction after 1 hr by fluorescence polarization assay

T1 sequence (P35222 whole entry): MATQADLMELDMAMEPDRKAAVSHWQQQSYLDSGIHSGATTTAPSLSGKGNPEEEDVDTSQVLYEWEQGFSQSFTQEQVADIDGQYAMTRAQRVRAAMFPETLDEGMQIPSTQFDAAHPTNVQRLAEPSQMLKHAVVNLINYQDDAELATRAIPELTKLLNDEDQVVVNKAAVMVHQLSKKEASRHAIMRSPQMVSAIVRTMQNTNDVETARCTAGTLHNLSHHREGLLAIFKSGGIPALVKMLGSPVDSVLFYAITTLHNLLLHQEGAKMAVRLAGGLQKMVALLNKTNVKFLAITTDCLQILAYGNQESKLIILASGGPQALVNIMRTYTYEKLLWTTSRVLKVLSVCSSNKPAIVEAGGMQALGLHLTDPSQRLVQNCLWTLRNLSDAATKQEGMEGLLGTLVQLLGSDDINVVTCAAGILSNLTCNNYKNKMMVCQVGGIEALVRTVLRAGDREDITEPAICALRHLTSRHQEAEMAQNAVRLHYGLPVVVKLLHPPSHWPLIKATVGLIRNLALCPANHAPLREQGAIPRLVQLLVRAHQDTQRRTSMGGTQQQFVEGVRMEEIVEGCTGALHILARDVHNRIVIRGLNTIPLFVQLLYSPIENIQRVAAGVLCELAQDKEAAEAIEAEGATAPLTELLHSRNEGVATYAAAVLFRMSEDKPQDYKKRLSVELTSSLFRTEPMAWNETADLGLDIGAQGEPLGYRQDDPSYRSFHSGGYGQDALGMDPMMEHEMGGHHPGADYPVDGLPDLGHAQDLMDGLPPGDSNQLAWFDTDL
T1 sequence (Q9NQB0 whole entry): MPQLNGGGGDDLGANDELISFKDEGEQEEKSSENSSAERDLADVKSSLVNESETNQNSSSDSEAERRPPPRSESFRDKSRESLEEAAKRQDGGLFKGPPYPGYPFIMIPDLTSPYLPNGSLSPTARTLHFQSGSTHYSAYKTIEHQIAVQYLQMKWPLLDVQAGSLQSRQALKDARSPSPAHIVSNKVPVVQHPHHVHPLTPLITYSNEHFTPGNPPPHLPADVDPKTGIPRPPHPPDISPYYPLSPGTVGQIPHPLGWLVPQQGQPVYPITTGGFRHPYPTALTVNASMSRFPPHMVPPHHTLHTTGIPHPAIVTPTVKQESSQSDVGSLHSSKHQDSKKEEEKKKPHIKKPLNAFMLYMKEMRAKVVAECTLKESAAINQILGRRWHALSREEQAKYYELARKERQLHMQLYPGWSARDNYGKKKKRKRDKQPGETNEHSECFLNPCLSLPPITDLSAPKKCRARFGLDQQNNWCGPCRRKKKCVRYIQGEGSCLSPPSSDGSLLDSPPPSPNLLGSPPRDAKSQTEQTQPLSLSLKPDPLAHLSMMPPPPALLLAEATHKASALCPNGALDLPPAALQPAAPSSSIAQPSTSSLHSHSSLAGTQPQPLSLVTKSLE

SMILES | Ratio Ki (Homo sapiens [1]) | Ratio Ki (Homo sapiens [2]) | Ratio Ki (Homo sapiens [3]) | Ratio Ki (Homo sapiens [4]) | Ki (TCF4/beta-catenin [5]) [µM] | Ki (TCF4/beta-catenin [6]) [µM] | Ki [7] [µM] | Ki [8] [µM] | Ki [9] [µM] | Ki [10] [µM]
C=CCN1C(=O)/C(=N\NC(=O)C(=O)Nc2cccc(C(=O)O)c2)c2ccccc21 | 25 | 16.3 | 10.5 | 3.3 | 16 | 21 | 220 | 68 | 400 | 260
COc1cccc(/C=C2/SC(=S)N(CCC(=O)O)C2=O)c1OC |  |  | 3.8 | 4.8 |  | 29 | 110 | 140 |  | 
COc1c(C[C@@H](C)OC(=O)Oc2ccc(O)cc2)c2c3c(C[C@@H](C)OC(=O)c4ccccc4)c(OC)c(=O)c4c(O)cc(OC)c(c5c(OC)cc(O)c(c1=O)c52)c43 [CALPHOSTIN C] |  |  |  |  | 18 |  |  |  |  | 
